Measured values published in patent US20230089867A1, “CYCLIC PENTAMER COMPOUNDS AS PROPROTEIN CONVERTASE SUBTILISIN/KEXIN TYPE 9 (PCSK9) INHIBITORS FOR THE TREATMENT OF METABOLIC DISORDER” (Novartis AG, priority 2018, published 2023).

Target: human PCSK9 (Homo sapiens, UniProt Q8NBP7)
Test: PCSK9 ligand binding TR-FRET assay (interference with binding of human PCSK9 to human LDLR)
Settings: for Max % inhibition: PCSK9 FRET assay, efficacy (Amax), 100% = 1 uM unlabeled human PCSK9, 0% = DMSO; for IC50: TR-FRET, human PCSK9 Alexa Fluor 647 / human LDLR extracellular domain-Europium Kryptate, read-out: PCSK9 FRET Assay IC50
Method in brief: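 Threefold compound dilutions were pre-incubated 30 min with PCSK9, after which 4 nM Europium Kryptate-tagged human LDLR ectodomain was added for a further 2 h.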

Chain of human PCSK9 (Q8NBP7 153-692): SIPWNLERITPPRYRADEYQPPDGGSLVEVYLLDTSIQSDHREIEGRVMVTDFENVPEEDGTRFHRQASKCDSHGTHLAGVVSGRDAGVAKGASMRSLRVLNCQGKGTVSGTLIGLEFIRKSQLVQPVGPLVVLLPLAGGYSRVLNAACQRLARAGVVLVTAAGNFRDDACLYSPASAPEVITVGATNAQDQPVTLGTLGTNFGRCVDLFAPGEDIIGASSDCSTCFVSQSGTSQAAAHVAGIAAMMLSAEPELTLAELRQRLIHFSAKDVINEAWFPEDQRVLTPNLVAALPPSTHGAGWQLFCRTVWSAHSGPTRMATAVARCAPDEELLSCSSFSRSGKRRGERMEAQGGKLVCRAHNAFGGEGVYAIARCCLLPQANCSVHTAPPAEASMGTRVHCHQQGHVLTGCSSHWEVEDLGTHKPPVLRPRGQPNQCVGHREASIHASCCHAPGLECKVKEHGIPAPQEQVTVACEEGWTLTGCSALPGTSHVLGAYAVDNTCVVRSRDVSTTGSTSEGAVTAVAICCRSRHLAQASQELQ
Chain of human PCSK9 (Q8NBP7 31-152 partner limits assumed): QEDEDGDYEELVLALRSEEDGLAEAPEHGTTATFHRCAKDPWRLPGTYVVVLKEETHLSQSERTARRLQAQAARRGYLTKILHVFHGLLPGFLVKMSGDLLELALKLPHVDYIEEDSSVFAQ

SMILES	Max % inhibition [%]	IC50 [nM]
C[C@@H]1CC(=O)N(Cc2ccc(Cl)cc2Oc2ccc(-c3cnc(CN(C)C)n3C)cc2)[C@@H](C)C(=O)N[C@@H](CO)C(=O)N(C)[C@@H](Cc2ccc(Cl)cc2)CC(=O)N[C@H]2CCCC[C@@H]2N(C)C1=O [Compound 164, (4S,7S,10S,14R,16aS,20aS)-11-(4-chloro-2-(4-(2-((dimethylamino)methyl)-1-methyl-1H-imidazol-5-yl)phenoxy)benzyl)-4-(4-chlorobenzyl)-7-(hydroxymethyl)-5,10,14,16-tetramethylhexadecahydrobenzo[l][1,4,7,11,14]pentaazacyclooctadecine-2,6,9,12,15(3H)-pentaone]	80.18	3.6
COC[C@@H]1NC(=O)[C@H](C)N(Cc2ccc(Cl)cc2Oc2ccc(-c3cnc(CN4CCCC4)n3C)cc2)C(=O)C[C@@H](Cc2ccc(F)c(F)c2)C(=O)N(C)[C@@H](C)CNC(=O)C[C@H](Cc2ccc(Cl)cc2)N(C)C1=O [Compound 165, (2S,5S,8S,13S,16R)-1-(4-chloro-2-(4-(1-methyl-2-(pyrrolidin-1-ylmethyl)-1H-imidazol-5-yl)phenoxy)benzyl)-8-(4-chlorobenzyl)-16-(3,4-difluorobenzyl)-5-(methoxymethyl)-2,7,13,14-tetramethyl-1,4,7,11,14-pentaazacyclooctadecane-3,6,10,15,18-pentaone]	92.29	5.6
COC[C@@H]1NC(=O)[C@H](C)N(Cc2ccc(Cl)cc2Oc2ccc(-c3cnc(CN4CCCC4)n3C)cc2)C(=O)C[C@@H](Cc2ccccc2)C(=O)N(C)[C@@H](CCCCN)CNC(=O)C[C@H](Cc2ccc(Cl)cc2)N(C)C1=O.O=C(O)C(F)(F)F [Compound 169, (2S,5S,8S,13S,16R)-13-(4-aminobutyl)-16-benzyl-1-(4-chloro-2-(4-(1-methyl-2-(pyrrolidin-1-ylmethyl)-1H-imidazol-5-yl)phenoxy)benzyl)-8-(4-chlorobenzyl)-5-(methoxymethyl)-2,7,14-trimethyl-1,4,7,11,14-pentaazacyclooctadecane-3,6,10,15,18-pentaone trifluoroacetate]	91.73	1.3

Second part, the molecule after the results:

Max % inhibition [%]	IC50 [nM]	SMILES
96.70	4.3	COC[C@@H]1NC(=O)[C@H](C)N(Cc2c(F)ccc(F)c2Oc2ccc(-c3cnc(CN(C)C)n3C)cc2)C(=O)C[C@@H](Cc2ccccc2)C(=O)N(C)[C@@H](C)CNC(=O)C[C@H](Cc2ccc(Cl)cc2)N(C)C1=O [Compound 166, (2S,5S,8S,13S,16R)-16-benzyl-8-(4-chlorobenzyl)-1-(2-(4-(2-((dimethylamino)methyl)-1-methyl-1H-imidazol-5-yl)phenoxy)-3,6-difluorobenzyl)-5-(methoxymethyl)-2,7,13,14-tetramethyl-1,4,7,11,14-pentaazacyclooctadecane-3,6,10,15,18-pentaone]
81.26	1.8	COC[C@@H]1NC(=O)[C@H](C)N(Cc2ccc(Cl)cc2Oc2ccc(-c3cnc(C(C)O)n3C)cc2)C(=O)C[C@@H](Cc2ccccc2)C(=O)N(C)[C@@H](C)CNC(=O)C[C@H](Cc2ccc(Cl)cc2)N(C)C1=O (stereo partly drawn) [Compound 167, (2S,5S,8S,13S,16R)-16-benzyl-1-(4-chloro-2-(4-(2-(1-hydroxyethyl)-1-methyl-1H-imidazol-5-yl)phenoxy)benzyl)-8-(4-chlorobenzyl)-5-(methoxymethyl)-2,7,13,14-tetramethyl-1,4,7,11,14-pentaazacyclooctadecane-3,6,10,15,18-pentaone]
85.66	67.7	COC[C@@H]1NC(=O)[C@H](C)N(Cc2c[nH]c(=O)cc2Oc2ccc(-c3cnc(CN(C)C)n3C)cc2)C(=O)C[C@@H](Cc2ccccc2)C(=O)N(C)[C@@H](C)CNC(=O)C[C@H](Cc2ccc(Cl)cc2)N(C)C1=O [Compound 168, (2S,5S,8S,13S,16R)-16-benzyl-8-(4-chlorobenzyl)-1-((4-(4-(2-((dimethylamino)methyl)-1-methyl-1H-imidazol-5-yl)phenoxy)-6-oxo-1,6-dihydropyridin-3-yl)methyl)-5-(methoxymethyl)-2,7,13,14-tetramethyl-1,4,7,11,14-pentaazacyclooctadecane-3,6,10,15,18-pentaone]
